Values after ≈ are worked out from the molar mass of the structure shown.
Key:
[1] = Aqueous solubility of the compound at 125 ug/ml measured after 24 hrs at pH 4.5 by LC-UV analysis; assay type: physicochemical; settings: for solubility: buffer, pH 4.5, 24 h, dose 125 µg/ml; for solubility at 24 h: aqueous medium, pH 4.5, dose 125 µg/ml
[2] = Metabolic stability of the compound in mouse liver microsomes at 1 umol/L by HPLC-MS/MS analysis; assay type: ADME, Microsome; settings: dose 1 µmol/L, read-out: Stability
[3] = Metabolic stability of the compound in human liver microsomes at 1 umol/L by HPLC-MS/MS analysis; assay type: ADME, Microsome; settings: dose 1 µmol/L, read-out: Stability
[4] = Metabolic stability of the compound in rat liver microsomes at 1 umol/L by HPLC-MS/MS analysis; assay type: ADME, Microsome; settings: dose 1 µmol/L, read-out: Stability
[5] = Aqueous solubility of the compound at 125 ug/ml measured after 24 hrs at pH 6.8 by LC-UV analysis; assay type: physicochemical; settings: for solubility: buffer, pH 6.8, 24 h, dose 125 µg/ml; for solubility at 24 h: aqueous medium, pH 6.8, dose 125 µg/ml
[6] = Stability of the compound in 1:1 acetonitrile/water at 125 ug/ml measured after 24 hrs by LC-UV analysis; assay type: physicochemical; settings: buffer, at 125 µg/mL

SMILES: Cc1sc2c(c1C)C(c1ccc(Cl)cc1)=N[C@@H](CC(=O)NCCCCCN1CCC(c3ccc4c(c3)CN(C3CCC(=O)NC3=O)C4=O)CC1)c1nnc(C)n1-2 (stereo partly specified)
- solubility [1]: > 191 µM
- remaining at 1 µM [2]: 27%
- remaining at 1 µM [3]: 54%
- remaining at 1 µM [4]: < 23%
- solubility [5]: > 178 µM

SMILES: Cc1sc2c(c1C)C(c1ccc(Cl)cc1)=N[C@@H](CC(=O)N1CCC(c3ccc4c(c3)CN(C3CCC(=O)NC3=O)C4=O)CC1)c1nnc(C)n1-2 (stereo partly specified)
- solubility at 24 h [1]: 36 µg/mL (≈ 50.7 µM)
- remaining at 1 µM [2]: 51%
- remaining at 1 µM [3]: 67%
- remaining at 1 µM [4]: 34%
- solubility at 24 h [5]: 26 µg/mL (≈ 36.6 µM)

SMILES: Cc1sc2c(c1C)C(c1ccc(Cl)cc1)=N[C@@H](CC(=O)NCCCCCCNc1ccc(Cc3ccc4c(c3)CN(C3CCC(=O)NC3=O)C4=O)cc1)c1nnc(C)n1-2 (stereo partly specified)
- solubility at 24 h [1]: 3 µg/mL (≈ 3.61 µM)
- remaining at 1 µM [2]: 83%
- remaining at 1 µM [3]: > 88%
- remaining at 1 µM [4]: 66%
- solubility [5]: < 1 µM

SMILES: Cc1sc2c(c1C)C(c1ccc(Cl)cc1)=N[C@@H](CC(=O)NCCCCCNc1ccc(Cc3ccc4c(c3)CN(C3CCC(=O)NC3=O)C4=O)cc1)c1nnc(C)n1-2 (stereo partly specified)
- solubility at 24 h [1]: 6 µg/mL (≈ 7.34 µM)
- remaining at 1 µM [2]: 76%
- remaining at 1 µM [3]: > 88%
- remaining at 1 µM [4]: 58%
- solubility [5]: < 1 µM

SMILES: Cc1sc2c(c1C)C(c1ccc(Cl)cc1)=N[C@@H](CC(=O)Nc1ccc(Cc3ccc4c(c3)CN(C3CCC(=O)NC3=O)C4=O)cc1)c1nnc(C)n1-2 (stereo partly specified)
- solubility [1]: < 1 µM
- remaining at 1 µM [2]: 25%
- remaining at 1 µM [3]: 37%
- remaining at 1 µM [4]: 64%
- solubility [5]: < 1 µM

SMILES: Cc1sc2c(c1C)C(c1ccc(Cl)cc1)=N[C@@H](CC(=O)NCCCNc1ccc(Cc3ccc4c(c3)CN(C3CCC(=O)NC3=O)C4=O)cc1)c1nnc(C)n1-2 (stereo partly specified)
- solubility at 24 h [1]: 14 µg/mL (≈ 17.7 µM)
- remaining at 1 µM [2]: 70%
- remaining at 1 µM [3]: > 88%
- remaining at 1 µM [4]: 48%
- solubility at 24 h [5]: 4 µg/mL (≈ 5.07 µM)

SMILES: Cc1sc2c(c1C)C(c1ccc(Cl)cc1)=N[C@@H](CC(=O)NCCCN1CCC(c3ccc4c(c3)CN(C3CCC(=O)NC3=O)C4=O)CC1)c1nnc(C)n1-2 (stereo partly specified)
- solubility [1]: > 185 µM
- remaining at 1 µM [2]: 27%
- remaining at 1 µM [3]: 34%
- remaining at 1 µM [4]: < 23%
- solubility [5]: > 175 µM

SMILES: Cc1sc2c(c1C)C(c1ccc(Cl)cc1)=N[C@@H](CC(=O)NCCN1CCC3(CCC(c4ccc5c(c4)CN(C4CCC(=O)NC4=O)C5=O)CC3)CC1)c1nnc(C)n1-2 (stereo partly specified)
- solubility [1]: > 190 µM
- remaining at 1 µM [2]: 44%
- remaining at 1 µM [3]: 56%
- remaining at 1 µM [4]: 33%
- solubility at 24 h [5]: 161 µg/mL (≈ 196 µM)

SMILES: Cc1sc2c(c1C)C(c1ccc(Cl)cc1)=N[C@@H](CC(=O)NCCNc1ccc(Cc3ccc4c(c3)CN(C3CCC(=O)NC3=O)C4=O)cc1)c1nnc(C)n1-2 (stereo partly specified)
- solubility at 24 h [1]: 3 µg/mL (≈ 3.87 µM)
- remaining at 1 µM [2]: 55%
- remaining at 1 µM [3]: 86%
- remaining at 1 µM [4]: 42%
- solubility at 24 h [5]: 1 µg/mL (≈ 1.29 µM)

SMILES: Cc1sc2c(c1C)C(c1ccc(Cl)cc1)=N[C@@H](CC(=O)NCCN1CC(N3CCC(c4ccc5c(c4)CN(C4CCC(=O)NC4=O)C5=O)CC3)C1)c1nnc(C)n1-2 (stereo partly specified)
- solubility [1]: > 188 µM
- remaining at 1 µM [2]: 25%
- Stability [6]: Unstable
- remaining at 1 µM [3]: 41%
- remaining at 1 µM [4]: < 23%
- solubility [5]: > 174 µM

SMILES: Cc1sc2c(c1C)C(c1ccc(Cl)cc1)=N[C@@H](CC(=O)NCCCCCCN1CCC(c3ccc4c(c3)CN(C3CCC(=O)NC3=O)C4=O)CC1)c1nnc(C)n1-2 (stereo partly specified)
- solubility [1]: > 197 µM
- remaining at 1 µM [2]: < 24%
- remaining at 1 µM [3]: 53%
- remaining at 1 µM [4]: < 23%
- solubility [5]: > 182 µM

SMILES: Cc1sc2c(c1C)C(c1ccc(Cl)cc1)=N[C@@H](CC(=O)NCCCCN1CCC(c3ccc4c(c3)CN(C3CCC(=O)NC3=O)C4=O)CC1)c1nnc(C)n1-2 (stereo partly specified)
- solubility [1]: > 189 µM
- remaining at 1 µM [2]: < 24%
- remaining at 1 µM [3]: 66%
- remaining at 1 µM [4]: < 23%
- solubility [5]: > 175 µM

SMILES: Cc1sc2c(c1C)C(c1ccc(Cl)cc1)=N[C@@H](CC(=O)NCCCCNc1ccc(Cc3ccc4c(c3)CN(C3CCC(=O)NC3=O)C4=O)cc1)c1nnc(C)n1-2 (stereo partly specified)
- solubility at 24 h [1]: 4 µg/mL (≈ 4.98 µM)
- remaining at 1 µM [2]: 77%
- remaining at 1 µM [3]: > 88%
- remaining at 1 µM [4]: 62%
- solubility [5]: < 1 µM

SMILES: Cc1sc2c(c1C)C(c1ccc(Cl)cc1)=N[C@@H](CC(=O)NCCN1CC3(CCC(c4ccc5c(c4)CN(C4CCC(=O)NC4=O)C5=O)CC3)C1)c1nnc(C)n1-2 (stereo partly specified)
- solubility [1]: > 190 µM
- remaining at 1 µM [2]: 33%
- remaining at 1 µM [3]: 60%
- remaining at 1 µM [4]: < 23%
- solubility at 24 h [5]: 101 µg/mL (≈ 127 µM)

SMILES: Cc1sc2c(c1C)C(c1ccc(Cl)cc1)=N[C@@H](CC(=O)NCCN1CCC(c3ccc4c(c3)CN(C3CCC(=O)NC3=O)C4=O)CC1)c1nnc(C)n1-2 (stereo partly specified)
- solubility [1]: > 177 µM
- remaining at 1 µM [2]: 25%
- remaining at 1 µM [3]: 68%
- remaining at 1 µM [4]: 40%
- solubility [5]: > 162 µM
